Test results from the NIST ThermoML archive (doi:10.1021/je400159e).
Numbers after ± are expanded uncertainties.

Key:
[1] = Molar enthalpy of transition or fusion; conditions: Crystal; Adiabatic calorimetry
[2] = molar heat capacity at constant pressure; conditions: 101.33 kPa, Vacuum adiabatic calorimetry
[3] = Crystal; Adiabatic calorimetry

CCOC(=O)C(NC(C)=O)C(=O)OCC [diethyl 2-acetamidomalonate]
Conditions	Molar enthalpy of transition or fusion [kcal/mol]	Triple point temperature [K]
[1]	8.198 ± 0.0478	–
[3]	–	368.72 ± 0.2

[2]
Conditions	molar heat capacity at constant pressure [J/K/mol]
78.24 K, Crystal	110.9 ± 0.7
80 K, Crystal	117.6 ± 0.7
80.92 K, Crystal	118.8 ± 0.7
84.07 K, Crystal	125.4 ± 0.8
85 K, Crystal	125.6 ± 0.8
87.1 K, Crystal	128.6 ± 0.8
90 K, Crystal	132.8 ± 0.8
90.03 K, Crystal	132.3 ± 0.8
92.96 K, Crystal	137.3 ± 0.9
95 K, Crystal	139.4 ± 0.9
95.86 K, Crystal	140.8 ± 0.9
98.72 K, Crystal	143.3 ± 0.9
100 K, Crystal	145.5 ± 0.9
102.57 K, Crystal	147.5 ± 0.9
105 K, Crystal	151 ± 0.9
106.44 K, Crystal	151.4 ± 0.9
109.33 K, Crystal	154.8 ± 1
110 K, Crystal	156.2 ± 1
112.24 K, Crystal	157.6 ± 1
115 K, Crystal	161 ± 1
115.17 K, Crystal	161.2 ± 1
118.1 K, Crystal	164.5 ± 1
120 K, Crystal	165.6 ± 1
121.02 K, Crystal	167.2 ± 1
123.94 K, Crystal	169.6 ± 1.1
125 K, Crystal	170 ± 1.1
126.84 K, Crystal	172.1 ± 1.1
129.74 K, Crystal	174.4 ± 1.1
130 K, Crystal	174.2 ± 1.1
132.64 K, Crystal	176.4 ± 1.1
135 K, Crystal	178.3 ± 1.1
135.54 K, Crystal	179.1 ± 1.1
138.43 K, Crystal	181.8 ± 1.1
140 K, Crystal	182.4 ± 1.1
141.33 K, Crystal	184 ± 1.1
144.22 K, Crystal	186.7 ± 1.2
145 K, Crystal	186.3 ± 1.2
147.11 K, Crystal	188.2 ± 1.2
149.99 K, Crystal	190.2 ± 1.2
150 K, Crystal	190.2 ± 1.2
153.39 K, Crystal	192.9 ± 1.2
155 K, Crystal	194.1 ± 1.2
157.07 K, Crystal	195.6 ± 1.2
160 K, Crystal	197.9 ± 1.2
160.22 K, Crystal	198.3 ± 1.2
163.12 K, Crystal	200.2 ± 1.2
165 K, Crystal	201.8 ± 1.2
166.04 K, Crystal	202.4 ± 1.2
168.95 K, Crystal	204.2 ± 1.3
170 K, Crystal	205.6 ± 1.3
171.83 K, Crystal	206.6 ± 1.3
174.74 K, Crystal	208.8 ± 1.3
175 K, Crystal	209.5 ± 1.3
177.68 K, Crystal	211 ± 1.3
180 K, Crystal	213.4 ± 1.3
180.6 K, Crystal	213.6 ± 1.3
183.5 K, Crystal	216.3 ± 1.3
185 K, Crystal	217.3 ± 1.3
186.43 K, Crystal	218.3 ± 1.3
189.39 K, Crystal	219.7 ± 1.4
190 K, Crystal	221.2 ± 1.4
192.32 K, Crystal	222.4 ± 1.4
195 K, Crystal	225.1 ± 1.4
195.24 K, Crystal	225 ± 1.4
198.14 K, Crystal	227.4 ± 1.4
200 K, Crystal	229 ± 1.4
201.06 K, Crystal	229.4 ± 1.4
204.69 K, Crystal	233 ± 1.4
205 K, Crystal	232.9 ± 1.4
208.24 K, Crystal	235.4 ± 1.4
210 K, Crystal	236.8 ± 1.5
211.12 K, Crystal	237.9 ± 1.5
214.07 K, Crystal	239.9 ± 1.5
215 K, Crystal	240.8 ± 1.5
216.99 K, Crystal	243.1 ± 1.5
219.9 K, Crystal	244 ± 1.5
220 K, Crystal	244.7 ± 1.5
222.8 K, Crystal	246.7 ± 1.5
225 K, Crystal	248.7 ± 1.5
225.75 K, Crystal	249.4 ± 1.5
228.73 K, Crystal	251.2 ± 1.5
230 K, Crystal	252.7 ± 1.6
231.68 K, Crystal	254.7 ± 1.6
234.64 K, Crystal	256.9 ± 1.6
235 K, Crystal	256.7 ± 1.6
237.58 K, Crystal	259.4 ± 1.6
240 K, Crystal	260.7 ± 1.6
240.49 K, Crystal	260.9 ± 1.6
244 K, Crystal	264.3 ± 1.6
245 K, Crystal	264.8 ± 1.6
247.5 K, Crystal	267.7 ± 1.6
250 K, Crystal	268.8 ± 1.6
250.46 K, Crystal	269.6 ± 1.7
253.49 K, Crystal	272.7 ± 1.7
255 K, Crystal	273 ± 1.7
256.52 K, Crystal	275 ± 1.7
259.52 K, Crystal	277.5 ± 1.7
260 K, Crystal	277.2 ± 1.7
262.52 K, Crystal	280.1 ± 1.7
265 K, Crystal	281.4 ± 1.7
265.5 K, Crystal	282.4 ± 1.7
268.47 K, Crystal	283.8 ± 1.7
270 K, Crystal	285.7 ± 1.7
271.42 K, Crystal	286.1 ± 1.8
274.37 K, Crystal	289.5 ± 1.8
275 K, Crystal	290.2 ± 1.8
277.31 K, Crystal	290.7 ± 1.8
280 K, Crystal	294.7 ± 1.8
280.26 K, Crystal	293.6 ± 1.8
283.28 K, Crystal	297.4 ± 1.8
285 K, Crystal	299.3 ± 1.8
286.35 K, Crystal	300.4 ± 1.8
289.39 K, Crystal	302.9 ± 1.9
290 K, Crystal	304.1 ± 1.9
292.4 K, Crystal	306.6 ± 1.9
295 K, Crystal	309 ± 1.9
295.4 K, Crystal	308.5 ± 1.9
298.15 K, Crystal	312.2 ± 1.9
298.4 K, Crystal	312 ± 1.9
300 K, Crystal	314.1 ± 1.9
301.4 K, Crystal	314.7 ± 1.9
304.39 K, Crystal	318.4 ± 1.9
305 K, Crystal	319.3 ± 2
307.37 K, Crystal	321.4 ± 2
310 K, Crystal	324.7 ± 2
310.35 K, Crystal	325.7 ± 2
313.32 K, Crystal	329.7 ± 2
315 K, Crystal	330.4 ± 2
316.34 K, Crystal	332.9 ± 2
319.44 K, Crystal	336.2 ± 2.1
320 K, Crystal	336.2 ± 2.1
322.53 K, Crystal	340.6 ± 2.1
325 K, Crystal	342.2 ± 2.1
325.61 K, Crystal	343 ± 2.1
328.68 K, Crystal	346.8 ± 2.1
330 K, Crystal	348.5 ± 2.1
331.74 K, Crystal	350.7 ± 2.1
334.79 K, Crystal	354.3 ± 2.2
335 K, Crystal	355 ± 2.2
337.83 K, Crystal	358 ± 2.2
340 K, Crystal	361.7 ± 2.2
340.85 K, Crystal	362.6 ± 2.2
343.87 K, Crystal	367.1 ± 2.2
345 K, Crystal	368.6 ± 2.2
372.62 K, Liquid	463.3 ± 2.8
375 K, Liquid	465 ± 2.8
375.92 K, Liquid	465.4 ± 2.8
379.02 K, Liquid	467.3 ± 2.8
380 K, Liquid	467.7 ± 2.8
382.13 K, Liquid	468.9 ± 2.9
385 K, Liquid	470.4 ± 2.9
385.23 K, Liquid	470.4 ± 2.9
388.37 K, Liquid	472.1 ± 2.9
390 K, Liquid	472.9 ± 2.9
391.51 K, Liquid	473.6 ± 2.9
394.65 K, Liquid	475.2 ± 2.9
395 K, Liquid	475.3 ± 2.9
